Tests used:
[1] = system: differentiated human macrophages; assay: Macrophage activation, IgG stimulation: IL-6; assay type: cell-based; details: stimulus (IgG or LPS) not given; read-out: Monocytes/Macrophage IL-6 IC50
Method: CD 14+ monocytes were purified from PBMC (Allcells # PB002) using the Monocyte Isolation kit (Miltenyi biotec #130-045-501) as per the manufacturer's instructions. Purity was assessed by measuring the percentage of CD14+ cells by flow cytometry. Typically >90% purity is achieved. The purified CD14+ cells are then plated out (6×10^6 cells/150 cm TC dish in 15 mls media) in Macrophage-SFM (Gibco #12065-074) with 100 ng/ml of M-CSF (Pepro Tech #300-25) and allowed to differentiate for five days. At the end of that period, cell morphology and cell surface markers (CD14, HLA-DR, B7.1, B7.2, CD64, CD32, and CD16) reflected the presence of mature differentiated macrophage.
(§1) A negative control consisting of the F(ab′)2 fragment was also coated to assess background stimulation. Unbound antibody was washed away 2× with 200 ul PBS. 20 ul of 5× compound was added to each well, followed by the addition 15 k cells of differentiated macrophage in 80 uL that had been scraped off of the plates. The cells were incubated for 16 hr in a 37° C. incubator, and supernatants were collected for Luminex analysis for IL-6 and TNFα, essentially as described for the primary T-cells, above.
Varied concentrations of compound were compared to solvent only to determine the IC50 of each compound for each cytokine Representative IC50 s for 2,4-pyrimidinediamine compounds of the invention are shown in Table 11.

[2] = system: Human Jurkat T-cells (clone N); assay: Jurkat T-cell activation (anti-TCR, CD69 upregulation); assay type: cell-based
How it was run: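 Readout is CD69 upregulation by flow cytometry (anti-CD69-APC, 20 min at 4 °C) after 20 h anti-TCR (C305, 500 ng/ml) stimulation at 37 °C.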

[3] = system: differentiated human macrophages; assay: Macrophage activation, IgG stimulation: TNF; assay type: cell-based; details: stimulus (IgG or LPS) not given; read-out: Monocytes/Macrophage TNF IC50
Method: Purity was assessed by measuring the percentage of CD14+ cells by flow cytometry.
as §1, with “20 ul of 5× compound was added to each well, followed by the addition 15 k cells of differentiated macrophage in 80 uL that had been scraped off of the plates.” left out

[4] = system: cultured human mast cells (CHMC); assay: CHMC low cell density IgE activation: tryptase assay; assay type: cell-based; details: low cell density; read-out: CHMC anti-IgE Tryptase
How it was run: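 Degranulation was triggered with anti-IgE for 30 minutes at 37° C in cultured human mast cells seeded at low density (1000-1500 cells/well, chosen by donor) after a 1 hr equilibration in MT buffer. Released tryptase in cleared supernatant was quantified with a tryptase substrate at room temperature for 30 minutes.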

[5] = system: bone marrow derived mast cells (BMMC); assay: BMMC high cell density IgE activation: hexosaminidase; assay type: cell-based, mouse; details: high cell density; read-out: BMMC anti-IgE Hexos.
Method: (§2) After sensitizing, cells are counted, pelleted (1000 rpm, 5-10 minutes), and resuspended at 1-3×10^6 cells/ml in MT buffer. Add 100 ul of cell suspension to each well and 100 ul of compound dilutions. The final vehicle concentration is 0.5% DMSO. Incubate at 37° C. (5% CO2) for 1 hour. After 1 hour of compound treatment, stimulate cells with 6× stimulus (60 ng/ml DNP-BSA). Mix wells with the cells and allow plates to incubate at 37° C. (5% CO2) for one hour. After 1 hour incubation, pellet cells (10 minutes, 1000 RPM) and collect 200 ul per well of the supernatant, being careful not to disturb pellet, and transfer to a clean tube or 96-well plate. Place the supernatant plate on ice. During the 4-5 hour step (see next) perform the hexosiminidase assay. Resuspend cell pellet in 240 ul WEI-conditioned media containing 0.5% DMSO and corresponding concentration of compound. Incubate BMMC cells for 4-5 hours at 37° C. (5% CO2). After incubation, pellet cells (1000 RPM, 10 minutes) and collect 225 ul per well and place in −80° C. until ready to perform ELISAS. ELISAS are performed on appropriately diluted samples (determined empirically for each donor cell population so that the sample measurement falls within the standard curve) following the supplier's instructions.
Add 50 uL of BMMC cell supernatant (see above) to the hexoseaminidase substrate, place at 37° C. for 30 minutes and read the plate at 5, 10, 15, and 30 minutes on a spectrophotometer.

[6] = system: bone marrow derived mast cells (BMMC); assay: BMMC high cell density IgE activation: IL-6; assay type: cell-based, mouse; details: high cell density; read-out: BMMC anti-IgE IL-6
Method: as §2

[7] = system: cultured human mast cells (CHMC); assay: CHMC low cell density ionomycin activation: tryptase assay; assay type: cell-based; details: low cell density; read-out: CHMC Ionomycin Tryptase
[8] = system: bone marrow derived mast cells (BMMC); assay: BMMC high cell density IgE activation: TNFalpha; assay type: cell-based, mouse; details: high cell density; read-out: BMMC anti-IgE TNF-alpha
Method: as §2

Syk kinase = target: T1, Syk kinase (Homo sapiens, UniProt P43405); assay: Syk kinase biochemical fluorescence polarization assay; details: isolated Syk kinase, fluorescence polarization, 4 uM ATP
T1 construct: purchased Upstate, Lake Placid NY

Primary T-cells [9] = assay: Primary T-cell cytokine production (αCD3/αCD28): TNF; assay type: cell-based, human; details: read-out: 1° T-Cell TNF IC50
Method: (§3) 2E8-4E8 PBMC or proliferating T cells grown in rIL-2 from healthy human donors were suspended in PBS were spun down (1500 rpm, 8-10 minutes) and resuspended in 100 ml RPMI Complete media (1% Pen-Strep, 1% L-Glutamine, 10 mM HEPES). The cells were plated in T175 flasks (37° C., 5% CO2) and monocytes were allowed to adhere for 2-3 hours. After monocyte attachment, non-adherent cells were harvested, counted by hemocytometer, washed several times with PBS then resuspended in Yssels Complete Media (Modified IMDM Media with 1% Human AB Serum, 1% Pen-Strep, 1% L-Glutamine, 10 mM HEPES) at […]. 90 uL of the cell dilution were then added to compounds diluted to 2× in Yssel's media and incubated for 30 minutes at 37° C. (5% CO2). After this preincubation step the compound/cell mixture was transferred to stimulation plates, as described below.
(5% CO2) for at 3-5 hours. After incubation with the stimulation antibodies, the cocktail was removed and the plates washed 3 times with PBS prior to addition of the primary T cell/compound mixture.
(§4) The compound/cell mixture was transferred to the stimulation plates and incubated for 18 hr at 37° C. (5% CO2). After the cell stimulation, ˜150 μl supernatant were transferred from each well into 96-well filter plates (Coming PVDF Filter Plates) spun down (2000 rpm, 2-3 minutes) and either used immediately for ELISA or LUMINEX measurements or frozen down at −80° C. for future use.
(§5) Luminex immunoassay multiplexing for TNF, IL-2, GMSCF, IL-4 and IFNg was performed essentially as described by the manufacturer (Upstate Biotechnology). Essentially 50 uL of sample was diluted into 50 uL assay diluent and 50 uL incubation buffer, then incubated with 100 uL of the diluted detection antibody for 1 hr at RT in the dark. The filter plate was washed 2× in Wash Buffer, then incubated with 100 uL of the diluted secondary reagent (SAV-RPE) for 30 min at RT in the dark. Finally the plates were washed 3 times and bead identification and RPE fluorescent measured by the Luminex instrument.
(§6) Varied concentrations of compound were compared to solvent only to determine the inhibition of T-cell activation IC50 of each compound.

Primary T-cells [10] = assay: Primary T-cell cytokine production (αCD3/αCD28): IFNg; assay type: cell-based, human; details: read-out: 1° T-Cell IFNg IC50
Method: as §3
(§7) Stimulation plates were prepared by coating 96 well plates with 5 μg/ml αCD3 (BD PharMingen, Catalog #555336)+10 μg/ml αCD28 (Beckman Coulter, Catalog #IM1376) in PBS (no Ca^2+/Mg^2+) at 37° C. (5% CO2) for at 3-5 hours. After incubation with the stimulation antibodies, the cocktail was removed and the plates washed 3 times with PBS prior to addition of the primary T cell/compound mixture.
as §4, §5, §6

Primary T-cells [11] = assay: Primary T-cell cytokine production (αCD3/αCD28): IL-4; assay type: cell-based, human; details: read-out: 1° T-Cell IL4 IC50
Method: as §3, §7, §4, §5, §6

Primary T-cells [12] = assay: Primary T-cell cytokine production (αCD3/αCD28): IL-2; assay type: cell-based, human; details: read-out: 1° T-Cell IL2 IC50
How it was run: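 IL-2 in 18 hr supernatants measured by ELISA against a standard curve or by Luminex multiplex, with IC50 derived relative to solvent-only wells. Non-adherent human donor lymphocytes were preincubated 30 min with compound, then moved to wells coated with αCD3 (5 μg/ml) and αCD28 (10 μg/ml).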

Primary T-cells [13] = assay: Primary T-cell cytokine production (αCD3/αCD28): GMSCF; assay type: cell-based, human; details: read-out: 1° T-Cell GMSCF IC50
Method: as §3, §7, §4, §5, §6

| IC50 [1] | IC50 [2] | IC50 [3] | IC50 [4] | IC50 [5] | IC50 [6] | IC50 [7] | IC50 [8] | IC50 (Syk kinase) | IC50 (Primary T-cells [9]) | IC50 (Primary T-cells [10]) | IC50 (Primary T-cells [11]) | IC50 (Primary T-cells [12]) | IC50 (Primary T-cells [13]) | Structure (SMILES) |
| --- | --- | --- | --- | --- | --- | --- | --- | --- | --- | --- | --- | --- | --- | --- |
| 839 nM | 3030 nM | 1260 nM | 225 nM | 240 nM | 100 nM | > 10000 nM | 140 nM | 141 nM | – | – | – | – | – | COc1ccc(Nc2ncc(F)c(Nc3ccc4c(c3)NC(=O)[C@@H](C)O4)n2)cc1Cl [Compound R909322] |
| 7620 nM | – | 4370 nM | 305 nM | 590 nM | 250 nM | 8300 nM | 110 nM | 421 nM | – | – | – | – | – | COc1ccc(Nc2nc(Nc3ccc4cc[nH]c4c3)ncc2F)cc1Cl [Compound R926976] |
| – | 224 nM | – | 28.7 nM | 2 nM | 6 nM | > 10000 nM | 7 nM | 8 nM | 595 nM | 1570 nM | 876 nM | 1320 nM | 1740 nM | CNC(=O)COc1cccc(Nc2ncc(F)c(Nc3ccc4c(c3)NC(=O)[C@H](C)O4)n2)c1 [Compound R909317] |
| 5650 nM | 930 nM | 8500 nM | 76 nM | 1350 nM | 1090 nM | 13000 nM | 930 nM | 111 nM | – | – | – | – | – | Cc1cccc(C)c1Nc1ncc(F)c(Nc2ccc3c(c2)NC(=O)C(C)(C)O3)n1 [Compound R927069] |
| 97 nM | 86 nM | 86 nM | 37 nM | 30 nM | 10 nM | 40000 nM | 5 nM | 3 nM | – | – | – | – | – | Cn1ncc2ccc(Nc3ncc(F)c(Nc4ccc5c(c4)NC(=O)C(C)(C)O5)n3)cc21 [Compound R940366] |
